Assay results as given in ChEMBL document CHEMBL3585271 (Bioorg Med Chem, 2015).

What was measured:
[1] = molecular target: T1, Amine oxidase [flavin-containing] B (Homo sapiens, UniProt P27338)
T1 sequence (P27338 whole entry): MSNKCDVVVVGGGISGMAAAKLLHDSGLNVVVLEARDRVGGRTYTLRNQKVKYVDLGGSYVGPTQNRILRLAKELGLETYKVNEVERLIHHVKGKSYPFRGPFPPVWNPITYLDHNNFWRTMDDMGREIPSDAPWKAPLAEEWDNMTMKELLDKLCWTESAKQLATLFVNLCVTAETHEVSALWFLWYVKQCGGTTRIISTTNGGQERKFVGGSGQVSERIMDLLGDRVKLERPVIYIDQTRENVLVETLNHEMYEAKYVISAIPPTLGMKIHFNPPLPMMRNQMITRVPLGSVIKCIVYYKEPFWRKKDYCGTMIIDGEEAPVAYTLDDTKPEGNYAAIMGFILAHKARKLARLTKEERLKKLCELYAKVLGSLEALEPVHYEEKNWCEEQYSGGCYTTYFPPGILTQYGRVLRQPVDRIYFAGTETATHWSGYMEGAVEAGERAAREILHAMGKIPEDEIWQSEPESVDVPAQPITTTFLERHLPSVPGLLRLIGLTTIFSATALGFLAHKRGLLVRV
Description: Inhibition of human recombinant MAO-B using benzylamine as substrate incubated for 15 mins prior to substrate addition measured after 20 mins by fluorescence plate reader analysis

[2] = Antioxidant activity assessed as trolox equivalent of AAPH radical scavenging activity compound preincubated for 10 mins followed by AAPH challenge measured every min for 120 mins by ORAC-FL assay; format: physicochemical; conditions: 2 h
[3] = species on record: Homo sapiens; assay: Selectivity index, ratio of IC50 for human recombinant MAO-A to IC50 for human recombinant MAO-B
[4] = molecular target: T2, Amine oxidase [flavin-containing] A (Homo sapiens, UniProt P21397)
T2 sequence (P21397 whole entry): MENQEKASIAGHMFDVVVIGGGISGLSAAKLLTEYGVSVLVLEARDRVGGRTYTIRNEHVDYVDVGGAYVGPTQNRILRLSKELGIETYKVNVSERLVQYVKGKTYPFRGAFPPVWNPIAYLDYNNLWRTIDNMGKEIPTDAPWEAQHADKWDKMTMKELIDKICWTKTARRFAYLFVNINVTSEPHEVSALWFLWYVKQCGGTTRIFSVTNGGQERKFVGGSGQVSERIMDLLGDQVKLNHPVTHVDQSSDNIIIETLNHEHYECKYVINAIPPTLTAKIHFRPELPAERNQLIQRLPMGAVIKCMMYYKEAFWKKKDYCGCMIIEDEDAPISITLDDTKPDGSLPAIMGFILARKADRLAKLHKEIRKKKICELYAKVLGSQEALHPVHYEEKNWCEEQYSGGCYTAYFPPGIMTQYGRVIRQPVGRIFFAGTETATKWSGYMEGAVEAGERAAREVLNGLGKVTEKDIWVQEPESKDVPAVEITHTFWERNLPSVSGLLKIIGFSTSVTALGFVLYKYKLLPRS
Description: Inhibition of human recombinant MAO-A using p-tyramine as substrate incubated for 15 mins prior to substrate addition measured after 20 mins by fluorescence plate reader analysis

[5] = physchem; conditions: PAMPA
Description: Permeability of the compound at 100 ug/mL after 10 hrs by PAMPA-BBB assay

[6] = molecular target: Amyloid-beta precursor protein (Homo sapiens) (UniProt P05067); assay: Inhibition of Cu2+-induced amyloid beta (1 to 42) aggregation (unknown origin) at 50 uM after 24 hrs by thioflavin T fluorescence assay (reference value: 100%); set-up: scale not given: the % may be the effect or the level left
Amyloid-beta precursor protein (Homo sapiens), sequence (P05067 whole entry): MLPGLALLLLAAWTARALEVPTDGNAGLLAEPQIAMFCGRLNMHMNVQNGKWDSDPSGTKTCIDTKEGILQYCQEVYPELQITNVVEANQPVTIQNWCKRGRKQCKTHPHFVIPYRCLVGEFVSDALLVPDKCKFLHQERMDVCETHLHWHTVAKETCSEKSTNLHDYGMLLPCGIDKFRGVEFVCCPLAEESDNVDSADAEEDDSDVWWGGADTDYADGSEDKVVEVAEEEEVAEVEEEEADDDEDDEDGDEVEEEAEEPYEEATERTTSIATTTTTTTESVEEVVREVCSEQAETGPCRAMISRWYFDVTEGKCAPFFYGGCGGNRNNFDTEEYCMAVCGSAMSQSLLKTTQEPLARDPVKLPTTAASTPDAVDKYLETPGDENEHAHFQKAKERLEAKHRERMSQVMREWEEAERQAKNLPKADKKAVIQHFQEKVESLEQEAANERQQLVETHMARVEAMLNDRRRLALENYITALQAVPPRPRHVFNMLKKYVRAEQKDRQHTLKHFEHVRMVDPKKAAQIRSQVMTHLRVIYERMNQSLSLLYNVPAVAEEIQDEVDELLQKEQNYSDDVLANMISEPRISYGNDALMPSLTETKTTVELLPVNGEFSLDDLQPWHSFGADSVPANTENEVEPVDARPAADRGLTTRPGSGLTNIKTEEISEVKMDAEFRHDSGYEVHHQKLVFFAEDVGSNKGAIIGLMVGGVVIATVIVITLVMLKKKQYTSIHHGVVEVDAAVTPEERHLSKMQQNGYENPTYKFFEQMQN

[7] = Metal chelating activity of the compound assessed as Cu2+ complex formation at 40 uM after 30 mins by UV-vis spectrometry; format: physicochemical; conditions: 0.5 h
[8] = Metal chelating activity of the compound assessed as Fe2+ complex formation at 40 uM after 30 mins by UV-vis spectrometry; format: physicochemical; conditions: 0.5 h
[9] = Metal chelating activity of the compound assessed as Zn2+ complex formation at 40 uM after 30 mins by UV-vis spectrometry; format: physicochemical; conditions: 0.5 h

Compound | IC50 [1] [nM] | Activity [2] [µmol] | Ratio IC50 [3] | IC50 [4] [nM] | Papp at 10 h, 100 ug/mL [5] [×10⁻⁶ cm/s] | Activity [6] [%] | Activity [7] | Activity [8] | Activity [9]
C#CCN(C)[C@H](C)Cc1ccc(NCc2cccc(OC)c2O)cc1 | > 1000 | 2.44 |  |  |  |  |  |  | 
C#CCN(C)[C@H](C)Cc1ccc(NCc2ncccc2C)cc1 | 520 | 1.78 | 10.6 | 5530 | 12.1 |  |  |  | 
C#CCN(C)[C@H](C)Cc1ccc(NCc2cc([N+](=O)[O-])ccc2O)cc1 | 950 | 2.1 |  |  |  |  |  |  | 
C#CCN(C)[C@H](C)Cc1ccc(NCc2cc(O)ccc2O)cc1 | 430 | 5.67 | 2.4 | 1030 | 3.1 | 63.1 |  |  | 
C#CCN(C)[C@H](C)Cc1ccc(NCc2cc(OC)ccc2O)cc1 | 310 | 3.81 | 3.3 | 1020 | 11.7 |  |  |  | 
C#CCN(C)[C@H](C)Cc1ccc(NCc2cc(Cl)ccc2O)cc1 | 310 | 4.44 | 2.2 | 700 |  |  |  |  | 
C#CCN(C)[C@H](C)Cc1ccc(NCc2ccccc2O)cc1 | 210 | 4.2 | 25.6 | 5370 | 11.5 | 40.4 | Active | Active | Active
C#CCN(C)[C@H](C)Cc1ccc(NCc2ccc(OC)cc2O)cc1 | > 1000 | 4.35 |  |  |  |  |  |  | 
C#CCN(C)[C@H](C)Cc1ccc(NCc2cc(F)ccc2O)cc1 | > 1000 | 2.26 |  |  |  |  |  |  | 
CCN(CC)CCCC(C)Nc1ccnc2cc(Cl)ccc12 (stereo not given) |  |  |  |  |  | 68.2 |  |  | 
C#CCN(C)[C@H](C)Cc1ccc(NCc2cc(N(C)C)ccc2O)cc1 | > 1000 | 4.52 |  |  | 12.5 |  |  |  | 
C#CCN(C)[C@H](C)Cc1ccc(NCc2ncccc2OC)cc1 | 310 | 1.49 |  | 3410 |  | 69.1 |  |  | 
